Experiment: wn = mass fraction of the nth substance listed
Settings: for surface tension liquid-gas: Maximal bubble pressure; for mass density: 100 kPa, Liquid, Vibrating tube method

CCC[n+]1ccn(C)c1.N[C@@H](CO)C(=O)[O-] [1-methyl-3-propylimidazolium L-serinate] + O
Settings	mass density, w2 = 0.00636 [kg/m3]	mass density, w2 = 0.00785 [kg/m3]	mass density, w2 = 0.00939 [kg/m3]	mass density, w2 = 0.0109 [kg/m3]	mass density, w2 = 0.0124 [kg/m3]	surface tension liquid-gas, w2 = 0.00641 [mN/m]	surface tension liquid-gas, w2 = 0.00791 [mN/m]	surface tension liquid-gas, w2 = 0.00942 [mN/m]	surface tension liquid-gas, w2 = 0.01091 [mN/m]	surface tension liquid-gas, w2 = 0.01241 [mN/m]
298.15 K	1181.69	1181.73	1181.78	1181.82	1181.86	50.2	50.8	51.7	52.5	53.2
303.15 K	1178.52	1178.56	1178.61	1178.65	1178.69	49.9	50.5	51.4	52.1	52.9
308.15 K	1175.36	1175.39	1175.43	1175.47	1175.52	49.6	50.2	50.9	51.8	52.5
313.15 K	1172.21	1172.24	1172.29	1172.33	1172.37	49.2	49.9	50.5	51.4	52
318.15 K	1169.06	1169.09	1169.13	1169.18	1169.22	48.8	49.5	50.1	50.9	51.6
323.15 K	1165.86	1165.89	1165.94	1165.98	1166.03	48.5	49.2	49.8	50.6	51.2
328.15 K	1162.76	1162.79	–	–	–	48.2	48.8	49.5	50.2	50.8
